These results are taken from publication PMC6476273, “Engineering a Model Cell for Rational Tuning of GPCR Signaling” (Cell, 2019).

Experiment [1] has as its system P. brasiliensis Ste2 homolog (PbSte2). To be noted: PbSte2 in S. cerevisiae; ref Ostrov et al., 2017; cited from earlier work. The source says: (D) The ... || For pathogen detection, we next set out to tune a point-of-care sensor for Paracoccidioides brasiliensis, recently developed by [Ostrov et al. (2017)]. This yeast GPCR-based sensor, utilizing the Ste2 homolog from P. brasiliensis (PbSte2), detects environmental levels of pheromone peptide released by haploid P. brasiliensis cells (PbPeptide) as a means of specifically detecting this human pathogen in complex samples (Figure 6E).

Experiment [2] has the same test system. The experiment is described as follows: PbPeptide dose-response, PbSte2 sensor single cell and two-cell amplifier-receiver consortium, GFP by plate reader. The experiment is classed as cell-based, Paracoccidioides brasiliensis. The source says:
For pathogen detection, we next set out to tune a point-of-care sensor for Paracoccidioides brasiliensis, recently developed by [Ostrov et al. (2017)]. This yeast GPCR-based sensor, utilizing the Ste2 homolog from P. brasiliensis (PbSte2), detects environmental levels of pheromone peptide released by haploid P. brasiliensis cells (PbPeptide) as a means of specifically detecting this human pathogen in complex samples (Figure 6E). […] To optimize these two properties, we applied our amplifier-receiver two strain approach to the PbSte2 sensor (Figures 6F–6H).

In experiment [3] the target is T1, human A2BR receptor (Homo sapiens, UniProt P29275).
T1 sequence (P29275 1-332): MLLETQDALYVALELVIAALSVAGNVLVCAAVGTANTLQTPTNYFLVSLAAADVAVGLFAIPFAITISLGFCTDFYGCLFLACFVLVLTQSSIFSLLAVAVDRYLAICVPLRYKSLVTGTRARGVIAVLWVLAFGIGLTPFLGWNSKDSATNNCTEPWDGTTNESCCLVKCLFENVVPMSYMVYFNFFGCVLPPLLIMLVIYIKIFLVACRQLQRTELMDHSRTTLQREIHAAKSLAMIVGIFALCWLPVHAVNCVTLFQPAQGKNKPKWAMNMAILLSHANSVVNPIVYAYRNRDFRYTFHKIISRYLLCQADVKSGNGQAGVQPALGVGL
T1 sequence (P08539 2-472 partner): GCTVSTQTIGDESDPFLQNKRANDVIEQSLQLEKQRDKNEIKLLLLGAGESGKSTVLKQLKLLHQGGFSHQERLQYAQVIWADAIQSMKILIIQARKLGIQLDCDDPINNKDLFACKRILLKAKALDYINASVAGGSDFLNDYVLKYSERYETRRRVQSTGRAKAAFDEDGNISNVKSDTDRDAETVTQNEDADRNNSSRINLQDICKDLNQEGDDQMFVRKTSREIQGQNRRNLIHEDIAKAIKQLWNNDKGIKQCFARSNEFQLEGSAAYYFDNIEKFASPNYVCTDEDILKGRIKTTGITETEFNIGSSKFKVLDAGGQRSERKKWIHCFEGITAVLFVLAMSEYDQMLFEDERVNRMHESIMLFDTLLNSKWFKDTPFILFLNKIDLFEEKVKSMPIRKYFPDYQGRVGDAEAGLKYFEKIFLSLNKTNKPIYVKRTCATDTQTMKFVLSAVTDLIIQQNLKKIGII
The experiment is described as follows: Adenosine dose-response, A2BR single strain and three-strain consortium, sfGFP by plate reader. The experiment is classed as cell-based. To be noted: for Hill slope: plate reader.

Experiment [4] addresses T1, human A2BR receptor. The experiment is described as follows: Adenosine dose-response, A2BR sensor strain, sfGFP by flow cytometry. To be noted: Fig S6C, wild-type Gpa1, triplicate isolates. The experiment is classed as cell-based. In general terms: A flow cytometer gives signals particle by particle.
The target in experiment [5] is T2, human MTNR1A receptor (Homo sapiens, UniProt P48039). Particulars: for Hill slope: plate reader.
T2 sequence (P48039 whole entry, one chain of several): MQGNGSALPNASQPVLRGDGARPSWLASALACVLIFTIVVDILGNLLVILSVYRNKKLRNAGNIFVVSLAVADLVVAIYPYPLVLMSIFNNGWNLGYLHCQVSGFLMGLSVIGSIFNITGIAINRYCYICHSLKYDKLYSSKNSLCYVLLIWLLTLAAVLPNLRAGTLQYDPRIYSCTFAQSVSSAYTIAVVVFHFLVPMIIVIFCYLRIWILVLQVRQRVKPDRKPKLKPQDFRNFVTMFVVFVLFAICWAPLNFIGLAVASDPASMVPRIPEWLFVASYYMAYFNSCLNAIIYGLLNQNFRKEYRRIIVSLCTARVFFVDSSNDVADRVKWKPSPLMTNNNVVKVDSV
Experiment [6] has as its target T2, human MTNR1A receptor.
The next experiment concerns the target T3, Mam2 receptor (Schizosaccharomyces pombe, UniProt Q00619).
T3 construct: expressed in transfected cells; host or cells: Saccharomyces cerevisiae yWS677 (BY4741 derivative), chromosomally integrated YTK cassette
T3 sequence (Q00619 1-348): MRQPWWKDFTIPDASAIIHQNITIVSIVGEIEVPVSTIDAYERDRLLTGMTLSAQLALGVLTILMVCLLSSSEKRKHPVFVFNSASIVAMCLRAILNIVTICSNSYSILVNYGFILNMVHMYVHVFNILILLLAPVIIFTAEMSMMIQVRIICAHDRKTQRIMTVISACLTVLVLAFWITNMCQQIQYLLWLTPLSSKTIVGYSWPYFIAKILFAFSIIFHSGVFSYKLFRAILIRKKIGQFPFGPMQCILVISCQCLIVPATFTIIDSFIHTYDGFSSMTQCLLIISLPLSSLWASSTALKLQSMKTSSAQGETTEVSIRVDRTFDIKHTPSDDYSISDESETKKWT
The experiment is described as follows: P-factor dose-response, Mam2 sensor strain in yWS677, sfGFP by flow cytometry. The experiment is classed as cell-based.

The subject of another experiment is Ste2. The experiment is described as follows: α-factor dose-response of pheromone response pathway strains, sfGFP by flow cytometry. The experiment is classed as cell-based, Saccharomyces cerevisiae.
The mark [7] stands for this setting: three-strain consortium 1:1:1 vs initial response.

Read-outs that look alike come from different tables or passages of the source. Ends that are not written are not given here.

Turning to WCTRPGQGC [PbPeptide], the sensitivity result in experiment [1] is recorded as “nanomolar sensitivity”. In experiment [2] (CCW12 promoter and signal amplification, two-strain consortia), the detection range result is “picomolar range”. The “narrowing of operational range” value in experiment [2] (amplifier-receiver two strain consortia) was 1,000 -fold.
For orientation: Hill slope means a measure of the steepness of the concentration-response curve. Regarding `Nc1ncnc2c1ncn2[C@@H]1O[C@H](CO)[C@@H](O)[C@H]1O` [Adenosine], the Hill slope at human A2BR receptor [3] (Fig 5B, single pop.) was 1.41 ± 0.10; on human A2BR receptor [3] (Fig 5C, mixed pop. of three strains 1:1:1) it was 0.78 ± 0.02; on human A2BR receptor [4], 1.32 ± 0.08. Besides, the operational range on human A2BR receptor [3] (Fig 5B, single pop., span between 5% and 95% of the activated response) was 1.56 ± 0.07 orders of magnitude; on human A2BR receptor [3] (Fig 5C legend, consortia of three engineered strains), 3.3 orders of magnitude; on human A2BR receptor [3] (Fig 5C, mixed pop. of three strains 1:1:1, span between 5% and 95% of the activated response) it was 3.27 ± 0.08 orders of magnitude. The “change in Hill slope” value on human A2BR receptor [3] (setting [7]) is recorded as “almost halved the Hill slope”. Besides, on human A2BR receptor [3] (setting [7]), the “increase in operational range” value was 50 -fold.
Turning to `COc1ccc2[nH]cc(CCNC(C)=O)c2c1` [Melatonin], the “operational range” value is on record as 3.8 orders of magnitude on human MTNR1A receptor [5] (Fig 5F legend, single population); 3.79 ± 0.15 orders of magnitude at human MTNR1A receptor [5] (Fig 5F, single pop., span between 5% and 95% of the activated response); 1.48 ± 0.19 orders of magnitude at human MTNR1A receptor [5] (Fig 5G, mixed pop., two-strain system, span between 5% and 95% of the activated response). The Hill slope turned out to be 0.69 ± 0.03 on human MTNR1A receptor [5] (Fig 5F, single pop.); 1.65 ± 0.06 at human MTNR1A receptor [5] (Fig 5G, mixed pop., tuned two-strain system 1:1); 0.80 ± 0.04 on human MTNR1A receptor [6] (Fig S6D, MTNR1A sensor strain, wild-type Gpa1, flow cytometry, triplicate isolates). The “linear range of dose-response” value at human MTNR1A receptor [6] (two-strain consortia, Fig 6B) was “four”.
By EC50 is commonly meant the concentration that produces a half-maximal response. The molecule TYADFLRAYQSWNTFVNPDRPNL [P-factor] gave an EC50 at Mam2 receptor (Fig 4D, Mam2 - yWS677, 4 h induction, 1 % DMSO, SC medium, 30°C, sfGFP flow cytometry, mean ± SD, triplicate isolates) of 0.117 µM. Besides, the “potency (EC50) compared with native S. pombe response” value at Mam2 receptor (Mam2 sensor strain vs S. pombe (Croft et al., 2013)) is reported as “identical potency (EC50)”.
“WHWLQLKPGQPMY [α-factor, S. cerevisiae peptide pheromone, ligand of Ste2]”: the “activation at 100 pM ɑ-factor on Ste2 overexpression” value in the experiment with Ste2 (Design 4 strain with 2x and 3x Ste2 (pCCW12), Fig S4H) is “unchanged”. In addition, in the experiment on Ste2 (Quasi-WT strain, FUS1 promoter-sfGFP), the “sensitivity and signal output compared with BY4741” value is “substantial increase in sensitivity and signal output”. In the experiment on Ste2 (design 3 strain (Gpa1 by PGK1, Ste2 by pCCW12), Fig 4A-B), the “sensitivity compared with Quasi-WT” value was “approached the sensitivity of the Quasi-WT strain”.
